Reference: patent US9359589B2, “Use of at least one chelating agent introduced into the culture medium of magnetotactic bacteria in order to stimulate the growth thereof” (UNIVERSITE PIERRE ET MARIE CURIE (PARIS 6), priority 2011, dated 2016)

Experiments:
Type in all cases: cell-based
[1] = system: Magnetotactic bacteria of the Magnetospirillum magneticum species, strain AMB-1; assay: Growth of magnetotactic bacteria after 7 days of culture in 1 liter of medium with chelating agent (absorption at 565 nm); conditions: for absorption measured at 565 nm of bacterial suspension compared with bacteria cultured in the absence of chelating agent: 1 liter
Procedure: (§1) Magnetotactic bacteria of the Magnetospirillum magneticum species, strain AMB-1, available from ATCC under the reference ATCC No. 700274, were used.
The cells were placed in culture under microanaerobic conditions, i.e. in a culture medium which has not been degassed but which is closed and has no contact with oxygen. The bacteria were cultured at laboratory temperature (approximately 25° C.) in a liquid culture in a slighly modified MSGM medium (medium ATCC 1653), the makeup of which is described hereinafter.
For a volume of one liter, the culture medium contains 0.68 g of monobasic potassium phosphate, 0.85 g of sodium succinate, 0.57 g of sodium tartrate, 0.083 g of sodium acetate, 225 μl of resazurin at 0.2%, 0.17 g of sodium nitrate, 0.04 g of L-ascorbic acid, 2 ml of a 10 mM iron quinate solution, 10 ml of a Woolf vitamin solution and 5 ml of a Woolf mineral solution.
(§2) In order to prepare the culture medium containing the various iron-chelating agents, said agents were introduced at various concentrations into the culture medium described above (section 1.2).
(§3) In this example, the magnetotactic bacteria were cultured in the presence of various chelating agents and harvested after 7 days. The absorption and the iron oxide concentration of the magnetosome chains extracted from the bacteria were then measured.

[2] = system: Magnetotactic bacteria of the Magnetospirillum magneticum species, strain AMB-1; assay: Magnetosome production after 7 days of culture (iron oxide concentration of extracted magnetosome chains, absorption at 480 nm)
Procedure: as §1, §2
The cells were harvested during the stationary phase.
The cells are harvested during the stationary phase by centrifugation at 4000 g for 20 minutes. The supernatant is removed and the cells are resuspended in 3 ml of deionized water.
To extract the magnetosome chains, 1 ml of cell suspension obtained as described above is again centrifuged and then resuspended in a 10 mM Tris-HCl buffer at pH 7.4, and then the cell suspension is subjected to a sonication step for 120 minutes at a power of 30 W, in order to lyze the cells and to release the magnetosome chains. Sonication periods of 60 and 180 minutes can also be used. For a sonication period of less than 60 minutes, the bacteria are not all lyzed. For a sonication period of greater than 180 minutes, the beginnings of aggregation are observed owing to the presence of individual magnetosomes which are aggregated.
After sonication, the magnetosome chain suspension is separated by placing a powerful neodynium magnet (0.1-1 T) in proximity to the tube, and the magnetic material is then recovered in the form of a pellet.
The maghemite concentration of a suspension of magnetosome chains extracted from magnetotactic bacteria was measured using the measurement of the absorption at 480 nm of this suspension. The method of calibration between the value of the absorption and the amount of maghemite is described elsewhere (PCT/EP2010/067765). These measurements were carried out in order to determine the amount of magnetosome chains produced by the magnetotactic bacteria after a given growth time. The amounts of magnetosome chains produced in the absence and in the presence of the chelating agents were then compared.
as §3

[3] = system: Magnetospirillum magneticum; assay: Magnetic moment of suspensions of magnetotactic bacteria (SQUID, 500 Oe or 1000 Oe) on D7, D8, D9
Procedure: The magnetic moment of various suspensions of magnetotactic bacteria deposited on blotting paper, under the application of a magnetic field of 500 Oe or of 1000 Oe, was also measured. The magnetic moment was measured for 10 ml of suspension of magnetotactic bacteria harvested at various days of growth, centrifuged, and then resuspended in 100 μl of distilled water. These 100 μl containing the magnetotactic bacteria are then redeposited on nonmagnetic absorbent paper which itself is inserted into a capsule that is placed in the magnetometer in order to carry out the magnetic measurements. […]
Cultures of Magnetospirillum magneticum were prepared as described in example 1. […] The cultures in suspension were placed at ambient temperature (approximately 25° C.) and the growth of the bacteria over time was monitored by measuring O.D. at the wavelength of 565 nanometers.
The bacteria were cultured for 12 days in a tube and the absorbance over the whole of the spectrum ranging from 400 to 700 nanometers was measured, respectively, (i) on the second day (D2) after inoculation, (ii) on the third day (D3) after inoculation, (iii) on the fourth day (D4) after inoculation, (iv) on the seventh day (D7) after inoculation, (v) on the eighth day (D8) after inoculation and (vi) on the ninth day (D9) after inoculation. […]

[4] = system: Magnetospirillum magneticum; assay: Growth over time of magnetotactic bacteria in 10 ml tubes with chelating agent (absorbance, O.D. at 565 nm, D2-D9); conditions: for effect on cell growth at high concentration: 400 μM; for effect on the growth of the magnetotactic bacteria (absorbance compared with cultures without the agent): 0.4-400 μM, D2 to D9, 10 ml tubes; for growth curves (fitted absorption, first 7 days) relative to bacteria cultured in the absence of the agent: all concentrations except 400 μM; for period of culture during which the effects are greatest: exponential growth phase; for multiplication of the bacteria during the first 4 days: first 4 days of growth
Procedure: Cultures of Magnetospirillum magneticum were prepared as described in example 1. The bacteria were cultured in 10 milliliter tubes. A volume of 100 microliters of culture medium was inoculated, at time “D0” (Day 0), with 0.1×10^6 bacterial cells. The cultures in suspension were placed at ambient temperature (approximately 25° C.) and the growth of the bacteria over time was monitored by measuring O.D. at the wavelength of 565 nanometers.
The following series of culture samples were prepared: • samples of control culture, comprising the bacterial cells in the culture medium free of chelating agent; • a series of culture samples containing the chelating agent rhodamine B, at increasing concentrations of 0.4 μM, 4 μM, 40 μm and 400 μM; • a series of culture samples containing the chelating agent ascorbic acid, at increasing concentrations of 0.4 μM, 4 μM, 40 μM and 400 μM; • a series of culture samples containing the chelating agent erythrosine, at increasing concentrations of 0.4 μM, 40 μM and 400 μM; • a series of culture samples containing the chelating agent folic acid, at increasing concentrations of 0.4 μM, 4 μM, 40 μM and 400 μM;
The bacteria were cultured for 12 days in a tube and the absorbance over the whole of the spectrum ranging from 400 to 700 nanometers was measured, respectively, (i) on the second day (D2) after inoculation, (ii) on the third day (D3) after inoculation, (iii) on the fourth day (D4) after inoculation, (iv) on the seventh day (D7) after inoculation, (v) on the eighth day (D8) after inoculation and (vi) on the ninth day (D9) after inoculation. The magnetic moments of various suspensions of magnetotactic bacteria deposited on blotting paper were measured on days D7, D8 and D9.

Compound	absorption measured at 565 nm of bacterial suspension compared with bacteria cultured in the absence of chelating agent ([1]; chelating agent 4 μM)	absorption measured at 565 nm of bacterial suspension compared with bacteria cultured in the absence of chelating agent ([1]; chelating agent 40 μM)	magnetosome production (iron oxide concentration) compared with the control bacteria ([2]; chelating agent 0.4 μM)	absorption measured at 565 nm of bacterial suspension compared with bacteria cultured in the absence of chelating agent ([1]; chelating agent 0.4 μM)	magnetosome production (iron oxide concentration) compared with the control bacteria ([2]; chelating agent 4 μM)	magnetosome production (iron oxide concentration) compared with the control bacteria ([2]; chelating agent 40 μM)	further results
O=S(=O)(O)CCCN1CCOCC1 [3-(N-morpholino)propanesulfonic acid]	greater	greater	increased				
O=S(=O)(O)CCCNC1CCCCC1 [3-[cyclohexylamino]-1-propanesulfonic acid]	greater	greater	increased	greater	increased	increased	
O=C(O)CN(CCN(CC(=O)O)CC(=O)O)CC(=O)O [EDTA, ethylenediaminetetraacetic acid]	greater	greater	increased	greater	increased		
NCCCC(O)(P(=O)(O)O)P(=O)(O)O [alendronate, reference compound]			increased		increased	increased	
Nc1ccccc1C(=O)O [anthranilic acid]			increased	greater			
O=C1O[C@H]([C@@H](O)CO)C(O)=C1O [ascorbic acid]							concentration range of stimulated magnetosome production compared with rhodamine B [3]: wider concentration range; effect on bacterial growth compared with rhodamine B [4]: similar; effect on cell growth at high concentration [4]: rather unfavorable; effect on the growth of the magnetotactic bacteria (absorbance compared with cultures without the agent) [4]: stimulates the growth; concentration giving the most pronounced effect on growth ([4]; after 4 days of culture): 0.4 µM; growth curves (fitted absorption, first 7 days) relative to bacteria cultured in the absence of the agent [4]: above; period of culture during which the effects are greatest [4]: first four days
O=C(O)CN(CC(=O)O)Cc1cc2c(cc1O)Oc1cc(O)c(CN(CC(=O)O)CC(=O)O)cc1C21OC(=O)c2ccccc21 [calcein]	greater	greater			increased	increased	
O=C(O)CC(O)(CC(=O)O)C(=O)O [citric acid]	greater	greater			increased	increased	
O=C1OC2(c3ccccc31)c1cc(I)c(O)c(I)c1Oc1c2cc(I)c(O)c1I [erythrosine]							absorption compared with control bacteria on day D4 ([4]; 0.4 μM): greater; absorption compared with control bacteria on day D4 ([4]; 4 μM): greater; effect on the growth of the magnetotactic bacteria (absorbance compared with cultures without the agent) [4]: stimulates the growth of the magnetotactic bacteria less than rhodamine B or ascorbic acid; absorption compared with control bacteria ([4]; the other days of culture and the other concentrations): either similar to or lower
Nc1nc2ncc(CNc3ccc(C(=O)N[C@@H](CCC(=O)O)C(=O)O)cc3)nc2c(=O)[nH]1 [folic acid]							multiplication of the bacteria during the first 4 days ([4]; 0.4 μM): multiply in greater number; growth of the bacteria during the first two days ([4]; 4 μM, first two days of growth): grow more rapidly; multiplication of the bacteria during the first 4 days ([4]; 40 μM): multiply in greater number; effect on the growth of the magnetotactic bacteria (absorbance compared with cultures without the agent) [4]: stimulates the growth
NCCCCCC(O)(P(=O)(O)O)P(=O)(O)O [neridronate, reference compound]		greater					
NC(=O)c1cccnc1 [nicotinamide]		greater					absorption relative to that of the control bacteria ([1]; chelating agent 40 μM): 1.5-2 times
CCN(CC)c1ccc2c(-c3ccccc3C(=O)O)c3ccc(=[N+](CC)CC)cc-3oc2c1 [rhodamine B]	greater	greater	increased	greater	increased	increased	effect on cell growth at high concentration [4]: rather unfavorable; effect on the growth of the magnetotactic bacteria (absorbance compared with cultures without the agent) [4]: stimulates the growth; growth curves (fitted absorption, first 7 days) relative to bacteria cultured in the absence of the agent [4]: above; period of culture during which the effects are greatest [4]: first six days
dextran		greater				increased	
hemoglobin	greater	greater	increased	greater	increased	increased	factor of increase of iron oxide production ([2]; 0.4 μM in the culture medium): 7-8; factor of increase of iron oxide production ([2]; 4 μM in the culture medium): 7-8
